This note sets out measurements from patent publication US8349851B2, “JAK kinase modulating compounds and methods of use thereof” (Ambit Biosciences Corp., priority 2009, dated 2013).

The structures appear in SMILES notation.

The test system of assay [1] is csTF-1 cells (GM-CSFR/JAK2/STAT5 pathway). Description: csTF-1 cell-based reporter assay. The settings on record: Homo sapiens; GM-CSF at 2 ng/mL, 4 hours; read-out: Cell Assay: CS0017: CS TF-1 reporter assay: IC50. Also noted: species or system human. The protocol: csTF-1 Cell-based Reporter Assay
csTF-1 cells are derived from the human erythroleukemia cell line that is growth dependent on GM-CSF and has an intact GM-CSFR/JAK2/STAT5 pathway. The cell line contains stably integrated beta-lactamase reporter gene under the control of the […] (irf 1) response element recognized by the activated transcription factor STATS. csTF-1 cells (Invitrogen K1219) were washed with assay media (97% OPTIMEM/0.5% dialyzed FBS/0.1 mM NEAA/1 mM Na pyr/P/S) and seeded in the same media at 5×10^5 cell/mL in T150 flask. After 16 hour incubation, cells were seeded at 2×10^5 cell/well in 50 μl volume, into Costar, clear bottom, 96-well assay plates. Serial dilutions of compounds were added to the plates with final DMSO concentration at 0.5% and GM-CSF at 2 ng/mL and the plates were then incubated at […] and 5% CO2 for 4 hours. The plates were brought to room temperature before adding Substrate Mixture according to manufacturer's protocol (Invitrogen, Catalog #K1085). The assay plates containing the substrate mixture were incubated in the dark at room temperature for 2 hours. Blue and green fluorescence was measured with excitation at 409 nm and emission at 460 nm (for blue) and excitation at 409 nm and emission at 530 nm (for green) using Spectra Max Gemini EM.

The target of the next assay is T1, JAK3 (Homo sapiens, UniProt P52333).
T1 construct: made in house
Description: Competition binding assay, JAK3. The settings on record: read-out: Binding Assay: JAK3 (active_KD, ENZ). The text has this: (§1) Competition Binding Assay to Determine Binding Constants (Kd) of the Compounds Against JAK Kinases
(§2) Competition binding assays used herein were developed, validated and performed as described in Fabian et al., Nature Biotechnology 2005, 23,329-336. Kinases were produced as fusions to T7 phage (See, Fabian et al. or WO04/015142) or alternatively, the kinases were expressed in HEK-293 cells and subsequently tagged with DNA for PCR detection (See, WO08/005310). For the binding assays, streptavidin-coated magnetic beads were treated with biotinylated affinity ligands for 30 min at rt to generate affinity resins. The liganded beads were blocked with excess biotin and washed with blocking buffer (SeaBlock (Pierce), 1% BSA, 0.05% Tween 20, 1 mM DTT) to remove unbound ligand and to reduce non-specific binding. […] Test compounds were prepared as 100× stocks in DMSO and rapidly diluted into the aqueous environment. DMSO was added to control assays lacking a test compound. Primary screen interactions were performed in polypropylene 384-well plates in a final volume of 34 μL, while Kd determinations were performed in polystyrene 96-well plates in a final volume of 135 μL. […] The kinase concentration in the eluates was measured by quantitative PCR. Each kinase was tested individually against each compound. Kds were determined using eleven serial threefold dilutions. A selectivity score, which is a quantitative measure of selectivity of a compound against a panel of enzymes, may be calculated for a compound by dividing the number of enzymes for which a compound meets a set criteria, (for example, a binding constant of 100 nM or less), by the total number of enzymes tested.

The target of another assay is T2, JAK2 (Homo sapiens, UniProt O60674).
T2 construct: made in house
The assay can be described thus: Competition binding assay, JAK2. The note with it: read-out: Binding Assay: JAK2 (active_KD).
Source text: as §1, §2

T2 sequence (O60674 849-1124 limits assumed): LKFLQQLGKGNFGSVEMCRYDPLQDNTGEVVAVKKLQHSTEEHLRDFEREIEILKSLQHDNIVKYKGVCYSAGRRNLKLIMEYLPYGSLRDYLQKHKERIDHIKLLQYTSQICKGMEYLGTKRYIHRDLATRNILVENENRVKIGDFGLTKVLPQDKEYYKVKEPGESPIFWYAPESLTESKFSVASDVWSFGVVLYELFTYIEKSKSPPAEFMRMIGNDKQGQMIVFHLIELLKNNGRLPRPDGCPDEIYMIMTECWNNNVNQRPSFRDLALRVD
T1 sequence (P52333 822-1111 limits assumed): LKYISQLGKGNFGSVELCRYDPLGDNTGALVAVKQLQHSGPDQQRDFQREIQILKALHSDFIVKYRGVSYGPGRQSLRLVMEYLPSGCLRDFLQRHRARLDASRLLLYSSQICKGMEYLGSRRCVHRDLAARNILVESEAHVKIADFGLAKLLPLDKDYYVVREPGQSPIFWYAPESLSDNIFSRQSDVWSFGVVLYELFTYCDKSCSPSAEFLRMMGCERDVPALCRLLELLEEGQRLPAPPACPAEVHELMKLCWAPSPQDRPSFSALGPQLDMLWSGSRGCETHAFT

As to `Cc1cc(Nc2nc(C(O)c3ccc(F)cc3)nc3ccc(F)cc23)n[nH]1` (racemic) [Example 54, (R,S)-(6-fluoro-4-(5-methyl-1H-pyrazol-3-ylamino)quinazolin-2-yl)(4-fluorophenyl)methanol], the IC50 in assay [1] lay within 100 to 500 nM. The figures for the Kd on JAK3 and on JAK2 were more than 100 nM and 1 to 10 nM, respectively.
Taken in the same sequence, the figures for `OC(c1ccc(F)cc1)c1nc(Nc2cc[nH]n2)c2cc(F)ccc2n1` (racemic) [Example 55, (R,S)-(4-(1H-pyrazol-3-ylamino)-6-fluoroquinazolin-2-yl)(4-fluorophenyl)methanol] were more than 500 nM, more than 100 nM and 1 to 10 nM.
The matching figures for `OC(c1ccc(F)cc1)c1nc(Nc2cc[nH]n2)c2ccc(Br)cc2n1` (racemic) [Example 58, (R,S)-(4-(1H-pyrazol-3-ylamino)-7-bromoquinazolin-2-yl)(4-fluorophenyl)methanol]: 100 to 500 nM, more than 100 nM and 1 to 10 nM.
The matching figures for `Cc1cc(Nc2nc(C(O)c3ccc(F)cc3)nc3c(F)cccc23)n[nH]1` (racemic) [Example 61, (R,S)-(8-fluoro-4-(5-methyl-1H-pyrazol-3-ylamino)quinazolin-2-yl)(4-fluorophenyl)methanol]: 100 to 500 nM, 10 to 100 nM and not above 1 nM.
Turning to `COc1ccccc1C(O)c1nc(Nc2cc(C)[nH]n2)c2ccccc2n1` (racemic) [Example 63, (R,S)-(2-methoxyphenyl)(4-(5-methyl-1H-pyrazol-3-ylamino)quinazolin-2-yl)methanol], the IC50 in assay [1] is 100 to 500 nM. Besides, the figures for the Kd on JAK3 and on JAK2 were 10 to 100 nM and 1 to 10 nM, respectively.
Taken in the same sequence, the figures for `Cc1cc(Nc2nc(C(O)c3ccc(F)c(F)c3)nc3ccccc23)n[nH]1` (racemic) [Example 66, (R,S)-(3,4-difluorophenyl)(4-(5-methyl-1H-pyrazol-3-ylamino)quinazolin-2-yl)methanol] were 100 to 500 nM, not above 10 nM and not above 1 nM.
As to `[2H]C(O)(c1ccc(F)cc1)c1nc(Nc2cc(C)[nH]n2)c2ccccc2n1` (racemic) [Example 72, (R,S) (4-fluorophenyl)(4-(5-methyl-1H-pyrazol-3-ylamino)quinazolin-2-yl)methanol-1-d], in assay [1], the IC50 is not above 100 nM.
Take `CCc1cc(Nc2nc(C(O)c3ccc(F)cc3)nc3ccccc23)n[nH]1` (racemic) [Example 74, (R,S)-(4-(5-ethyl-1H-pyrazol-3-ylamino)quinazolin-2-yl)(4-fluorophenyl)methanol]: the Kd on JAK2 is not above 1 nM.
The same measure, in the same setting: next, `Cc1cc(Nc2nc(C(O)c3ccc(F)c(O)c3)nc3ccccc23)n[nH]1` (racemic) [Example 78, (R,S)-(2-fluoro-5-(hydroxy(4-(5-methyl-1H-pyrazol-3-ylamino)quinazolin-2-yl)methyl)phenol acetate]: not above 1 nM.
Consider `Fc1ccc(C(F)(F)c2nc(Nc3cc[nH]n3)c3ccc(F)cc3n2)cc1` [Example 21, 2-(difluoro(4-fluorophenyl)methyl)-7-fluoro-N-(1H-pyrazol-3-yl)quinazolin-4-amine], for which, in assay [1], the concentration for half-maximal inhibition (IC50) lay within 100 to 500 nM. Besides, the Kd on JAK3 lay in the range of 10 to 100 nM; at JAK2, 1 to 10 nM.
For `O=C(c1ccc(F)cc1)c1nc(Nc2cc[nH]n2)c2ccc(I)cc2n1` [Example 22, (4-(1H-pyrazol-3-ylamino)-7-iodoquinazolin-2-yl)(4-fluorophenyl)methanone], in assay [1], the IC50 was in the range of 100 to 500 nM. Further, the values for the Kd on JAK3 and at JAK2 were more than 100 nM and 1 to 10 nM, respectively.
The matching figures for `Cc1ccc2c(Nc3cc[nH]n3)nc(C(F)(F)c3ccc(F)cc3)nc2c1` [Example 27, 2-(difluoro(4-fluorophenyl)methyl)-7-methyl-N-(1H-pyrazol-3-yl)quinazolin-4-amine]: not above 100 nM, 10 to 100 nM and not above 1 nM.
As for `Cc1cc(Nc2nc(C(F)(F)c3ccc(F)cc3)nc3cc(CO)ccc23)n[nH]1` [Example 49, (2-(difluoro(4-fluorophenyl)methyl)-4-(5-methyl-1H-pyrazol-3-ylamino)quinazolin-7-yl)methanol], in assay [1], the IC50 was not above 100 nM. Further, the Kd on JAK3 is not above 10 nM; at JAK2, not above 1 nM.
Taken in the same sequence, the figures for `Cc1cc(Nc2nc(C(=O)c3ccc(F)cc3)nc3ccc(F)cc23)n[nH]1` [Example 53, (6-fluoro-4-(5-methyl-1H-pyrazol-3-ylamino)quinazolin-2-yl)(4-fluorophenyl)methanone] were 100 to 500 nM, more than 100 nM and 1 to 10 nM.
Taken in the same sequence, the figures for `Cc1cc(Nc2nc(C(=O)c3ccc(F)cc3)nc3cc(Br)ccc23)n[nH]1` [Example 56, (7-bromo-4-(5-methyl-1H-pyrazol-3-ylamino)quinazolin-2-yl)(4-fluorophenyl)methanone] were 100 to 500 nM, 10 to 100 nM and 1 to 10 nM.
As for `Cc1cc(Nc2nc(C(O)c3ccc(F)cc3)nc3cc(Br)ccc23)n[nH]1` (stereo not shown) [Example 57, (7-bromo-4-(5-methyl-1H-pyrazol-3-ylamino)quinazolin-2-yl)(4-fluorophenyl)methanol], in assay [1], the IC50 fell in the range of 100 to 500 nM. Besides, the Kd at JAK2 lay in the range of 1 to 10 nM.
For `Cc1cc(Nc2nc(C3(c4ccc(F)cc4)OCCO3)nc3ccccc23)n[nH]1` [Example 59, 2-(2-(4-fluorophenyl)-1,3-dioxolan-2-yl)-N-(5-methyl-1H-pyrazol-3-yl)quinazolin-4-amine], in assay [1], the IC50 is not above 100 nM. In addition, the Kd on JAK3 was 10 to 100 nM; on JAK2, not above 1 nM.
Taken in the same sequence, the figures for `Cc1cc(Nc2nc(C(=O)c3ccc(F)cc3)nc3c(F)cccc23)n[nH]1` [Example 60, (8-fluoro-4-(5-methyl-1H-pyrazol-3-ylamino)quinazolin-2-yl)(4-fluorophenyl)methanone] were 100 to 500 nM, more than 100 nM and 1 to 10 nM.
Taken in the same sequence, the figures for `COc1ccccc1C(=O)c1nc(Nc2cc(C)[nH]n2)c2ccccc2n1` [Example 62, (2-methoxyphenyl)(4-(5-methyl-1H-pyrazol-3-ylamino)quinazolin-2-yl)methanone] were 100 to 500 nM, more than 100 nM and 1 to 10 nM.
`Cc1cc(Nc2nc(C(O)c3cccc(F)c3)nc3ccccc23)n[nH]1` (stereo not shown) [Example 64, (3-fluorophenyl)(4-(5-methyl-1H-pyrazol-3-ylamino)quinazolin-2-yl)methanol]: the IC50 in assay [1] was in the range of 100 to 500 nM. Further, the values for the Kd at JAK3 and on JAK2 were 10 to 100 nM and 1 to 10 nM, respectively.
Taken in the same sequence, the figures for `Cc1cc(Nc2nc(C(NC=O)c3ccc(F)cc3)nc3ccccc23)n[nH]1` (stereo not shown) [Example 65, N-((4-fluorophenyl)(4-(5-methyl-1H-pyrazol-3-ylamino)quinazolin-2-yl)methyl)formamide] were 100 to 500 nM, 10 to 100 nM and not above 1 nM.
As to `Cc1cc(Nc2nc(C(O)c3ccc(F)c(Cl)c3)nc3ccccc23)n[nH]1` (stereo not shown) [Example 67, (3-chloro-4-fluorophenyl)(4-(5-methyl-1H-pyrazol-3-ylamino)quinazolin-2-yl)methanol], the IC50 in assay [1] fell in the range of 100 to 500 nM. Moreover, the Kd was not above 10 nM at JAK3 and not above 1 nM on JAK2.
Consider `COc1cc(C(=O)c2nc(Nc3cc(C)[nH]n3)c3ccccc3n2)ccc1F` [Example 76, (4-fluoro-3-methoxyphenyl)(4-(5-methyl-1H-pyrazol-3-ylamino)quinazolin-2-yl)methanone], for which the Kd on JAK2 was more than 10 nM.
With `Cc1cc(Nc2nc(C(=O)c3ccc(F)c(O)c3)nc3ccccc23)n[nH]1` [Example 77, (4-fluoro-3-hydroxyphenyl)(4-(5-methyl-1H-pyrazol-3-ylamino)quinazolin-2-yl)methanone], on JAK2, the Kd is more than 10 nM.
